SMILES strings stand for the structures. Where “and” joins values, the source holds several entries; their conditions need not be identical. Identical values can stand only once. Inconclusive results and toxic doses are left out.

The text below walks through data of PubChem BioAssay AID330 (DTP/NCI, 2004).

For the assay, the system named is P388 leukemia ip, CD2F1 mice, survival T/C. Briefly: NCI In Vivo Anticancer Drug Screen. Data for tumor model P388 Leukemia (intraperitoneal) in CD2F1 (CDF1) mice. The note with it: endpoint: median survival time, higher = longer survival. An outline of the steps:
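Mice carrying the transplanted tumor received test compound or vehicle. Survival was recorded in each group, and the value is the treated-group measurement divided by that of the vehicle-treated control group.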

Where [1] appears, read: dose: 100.0 mg/kg/injection, schedule: Q01DX009 (ip), vehicle: saline with Tween-80.
[2] abbreviates: dose: 200.0 mg/kg/injection, schedule: Q01DX009 (ip), vehicle: saline with Tween-80.
Setting [3] is: dose: 50.0 mg/kg/injection, schedule: Q01DX009 (ip), vehicle: saline with Tween-80.
Where [4] appears, read: dose: 60.0 mg/kg/injection, schedule: Q01DX005 (ip), vehicle: saline with Tween-80.
[5] abbreviates: dose: 120.0 mg/kg/injection, schedule: Q01DX005 (ip), vehicle: saline with Tween-80.
Where [6] appears, read: dose: 240.0 mg/kg/injection, schedule: Q01DX005 (ip), vehicle: saline with Tween-80.
[7] abbreviates: dose: 12.5 mg/kg/injection, schedule: Q01DX009 (ip), vehicle: saline.
The mark [8] stands for this setting: dose: 25.0 mg/kg/injection, schedule: Q01DX009 (ip), vehicle: saline.
Setting [9] is: dose: 50.0 mg/kg/injection, schedule: Q01DX009 (ip), vehicle: saline.
Where [10] appears, read: dose: 50.0 mg/kg/injection, schedule: Q01DX005 (ip), vehicle: saline with Tween-80.
Setting [11] is: dose: 100.0 mg/kg/injection, schedule: Q01DX005 (ip), vehicle: saline with Tween-80.
Setting [12] is: dose: 200.0 mg/kg/injection, schedule: Q01DX005 (ip), vehicle: saline with Tween-80.
[13] abbreviates: dose: 6.25 mg/kg/injection, schedule: Q01DX009 (ip), vehicle: saline.
Setting [14] is: dose: 50.0 mg/kg/injection, schedule: Q01DX009 (ip), vehicle: suspension in saline.

Turning to `O=C(/C=C/c1ccccc1)O[C@@H]1CC2CC1C[C@H]2c1cnc[nH]1` (stereo partly drawn), the T/C is 100 % of control (dose: 25.0 mg/kg/injection, schedule: Q04DX002 (ip), vehicle: saline with Tween-80); 101 % of control (dose: 50.0 mg/kg/injection, schedule: Q04DX002 (ip), vehicle: saline with Tween-80); 92 % of control (dose: 100.0 mg/kg/injection, schedule: Q04DX002 (ip), vehicle: saline with Tween-80).

On to `CC(C)CC(=O)CC(O)(C(F)(F)F)C(F)(F)F`, for which the T/C is 109 % of control under setting [1] and 113 % of control under setting [2].

Consider `S=C(SCc1ccccc1)N1CCN(C(=S)SCc2ccccc2)CC1`, for which the T/C reads like this: under setting [3], 89 % of control; under setting [1], 91 % of control; under setting [2], 91 % of control.

On to `O=C(c1ccccc1)c1ccccc1NCC(O)COc1ccc(Cl)cc1C(=O)c1ccccc1` (stereo not drawn), for which the T/C under setting [4] was 91 % of control and 96 % of control; the T/C under setting [5] is 95 % of control; the T/C under setting [6] is 88 % of control and 90 % of control.

For the compound `CN(c1ccccc1)c1cc2c(cc1[N+](=O)[O-])no[n+]2[O-]`, the T/C (dose: 7.5 mg/kg/injection, schedule: Q01DX009 (ip), vehicle: saline) is 100 % of control and 86 % of control and 97 % of control; the T/C (dose: 15.0 mg/kg/injection, schedule: Q01DX009 (ip), vehicle: saline) was 107 % of control and 94 % of control; the T/C (dose: 30.0 mg/kg/injection, schedule: Q01DX009 (ip), vehicle: saline) was 105 % of control and 95 % of control; the T/C (dose: 60.0 mg/kg/injection, schedule: Q01DX009 (ip), vehicle: saline) is 100 % of control and 101 % of control and 92 % of control.

With `COc1ccc(NC(=O)C/C(C)=C2/C(=O)NN(c3ccccc3)C2=O)cc1`, the T/C was 104 % of control under setting [4], 97 % of control under setting [5] and 92 % of control under setting [6].

Turning to `CC1=C(C#N)C(=O)OC1(C)C1CCCC(=O)C1` (stereo not drawn), the T/C (dose: 7.5 mg/kg/injection, schedule: Q01DX005 (ip), vehicle: saline with Tween-80) is 99 % of control; the T/C (dose: 15.0 mg/kg/injection, schedule: Q01DX005 (ip), vehicle: saline with Tween-80) is 100 % of control; the T/C (dose: 30.0 mg/kg/injection, schedule: Q01DX005 (ip), vehicle: saline with Tween-80) was 98 % of control; the T/C under setting [4] was 100 % of control and 107 % of control.

For `Cc1cc[n+](CC(N)=O)cc1`, the T/C is, setting by setting: under setting [7], 96 % of control; under setting [8], 94 % of control; under setting [9], 96 % of control.

Regarding `CCCCCN(CCCCC)CC(=O)c1ccc2cc(Br)c3ccccc3c2c1`, the T/C reads like this: under setting [10], 104 % of control; under setting [11], 101 % of control; under setting [12], 108 % of control.

For `CCCS(=O)[O-].CCCS(=O)[O-].[Zn+2]`, the T/C was 103 % of control (dose: 0.05 mg/kg/injection, schedule: Q01DX009 (ip), vehicle: saline); 107 % of control (dose: 0.1 mg/kg/injection, schedule: Q01DX009 (ip), vehicle: saline); 108 % of control (dose: 0.2 mg/kg/injection, schedule: Q01DX009 (ip), vehicle: saline); 99 % of control (dose: 0.4 mg/kg/injection, schedule: Q01DX009 (ip), vehicle: saline); 107 % of control (dose: 0.8 mg/kg/injection, schedule: Q01DX009 (ip), vehicle: saline); 108 % of control (dose: 1.6 mg/kg/injection, schedule: Q01DX009 (ip), vehicle: saline). Moreover, the T/C runs as follows: (dose: 3.2 mg/kg/injection, schedule: Q01DX009 (ip), vehicle: saline) 101 % of control; (dose: 6.4 mg/kg/injection, schedule: Q01DX009 (ip), vehicle: saline) 100 % of control; (dose: 12.8 mg/kg/injection, schedule: Q01DX009 (ip), vehicle: saline) 100 % of control.

Turning to `Cc1cc(OCc2nc(N)nc(N)c2-c2ccc(Cl)c(Cl)c2)ccc1NS(=O)(=O)c1cccc(S(=O)(=O)F)c1`, the T/C reads like this: (dose: 176.0 mg/kg/injection, schedule: Q04DX003 (ip), vehicle: saline) 122 % of control; (dose: 400.0 mg/kg/injection, schedule: Q04DX003 (ip), vehicle: saline) 150 % of control.

As to `CC(=O)NS(=O)(=O)c1ccc(N=NC2C(=O)N(C(=O)c3ccncc3)N=C2C)cc1` (stereo not drawn), the T/C under setting [3] is 95 % of control, the T/C under setting [1] is 97 % of control and the T/C under setting [2] is 100 % of control.

For the compound `O=C(NC(Cc1ccc(Cl)cc1)C(=O)O)c1ccc(I)cc1` (stereo not drawn), the T/C is, setting by setting: (dose: 50.0 mg/kg/injection, schedule: Q01DX005 (ip), vehicle: Klucel (hydroxypropylcellulose) (HPC)) 101 % of control; (dose: 100.0 mg/kg/injection, schedule: Q01DX005 (ip), vehicle: Klucel (hydroxypropylcellulose) (HPC)) 101 % of control; (dose: 200.0 mg/kg/injection, schedule: Q01DX005 (ip), vehicle: Klucel (hydroxypropylcellulose) (HPC)) 94 % of control.

Turning to `O=N[O-].O=N[O-].[Co].[NH-]CC[N-]CCO.[NH-]CC[N-]CCO`, the T/C was 95 % of control under setting [13], 99 % of control under setting [7], 94 % of control under setting [8] and 95 % of control under setting [9].

Turning to `N=C(N)SCc1ccc(C(=O)Oc2ccc([N+](=O)[O-])cc2)cc1`, the T/C by setting is: (dose: 100.0 mg/kg/injection, schedule: Q04DX003 (ip), vehicle: saline with Tween-80) 100 % of control; (dose: 200.0 mg/kg/injection, schedule: Q04DX003 (ip), vehicle: saline with Tween-80) 104 % of control.

With `CSc1cccc(NC(=O)Oc2c(Cl)cccc2Cl)c1`, the T/C is 113 % of control (dose: 50.0 mg/kg/injection, schedule: Q01DX009 (ip), vehicle: gum acacia) and 111 % of control (dose: 100.0 mg/kg/injection, schedule: Q01DX009 (ip), vehicle: gum acacia).

Take `CC(C)(C)[P+](C)(C)c1ccccc1`: the T/C is 105 % of control (dose: 12.5 mg/kg/injection, schedule: Q04DX003 (ip), vehicle: Klucel (hydroxypropylcellulose) (HPC)) and 100 % of control (dose: 25.0 mg/kg/injection, schedule: Q04DX003 (ip), vehicle: Klucel (hydroxypropylcellulose) (HPC)).

Consider `NC(=S)N/N=C\c1nccc2ccccc12`, for which the T/C is, setting by setting: under setting [13], 90 % of control; under setting [7], 99 % of control; under setting [14], 94 % of control.

As to `CC(=O)NC1=C(N2CC2)C(=O)C(NC(C)=O)=C(N2CC2)C1=O`, the T/C is, setting by setting: (dose: 125.0 micrograms/kg/injection, schedule: Q01DX010 (ip), vehicle: saline) 115 % of control; (dose: 500.0 micrograms/kg/injection, schedule: Q01DX010 (ip), vehicle: saline) 215 % of control; (dose: 1000.0 micrograms/kg/injection, schedule: Q01DX010 (ip), vehicle: saline) 255 % of control.

Take `O=C(C[n+]1ccccc1)NC(O)C(Cl)(Cl)Cl` (stereo not drawn): the T/C (dose: 50.0 mg/kg/injection, schedule: Q01DX005 (ip), vehicle: saline) was 106 % of control; the T/C (dose: 100.0 mg/kg/injection, schedule: Q01DX005 (ip), vehicle: saline) is 105 % of control; the T/C (dose: 200.0 mg/kg/injection, schedule: Q01DX005 (ip), vehicle: saline) is 109 % of control.

On to `O=c1c2cc(F)ccc2nnn1-c1ccccc1`, for which the T/C by setting is: (dose: 12.5 mg/kg/injection, schedule: Q01DX009 (ip), vehicle: suspension in saline) 88 % of control; (dose: 25.0 mg/kg/injection, schedule: Q01DX009 (ip), vehicle: suspension in saline) 98 % of control; under setting [9], 86 % of control; under setting [14], 107 % of control; (dose: 200.0 mg/kg/injection, schedule: Q01DX009 (ip), vehicle: saline) 90 % of control.

In the case of `O/N=C(/c1ccccc1)n1nnc2ccccc21`, the T/C was 118 % of control under setting [4], 106 % of control under setting [5] and 105 % of control under setting [6].

As for `CCCC1C(CC)C=C(CC)C(O)C1(CC)CO` (stereo not drawn), the T/C under setting [10] was 97 % of control, the T/C under setting [11] is 97 % of control and the T/C under setting [12] is 97 % of control.

For `Cc1ccc(NC(=O)Oc2ccc(C#N)cc2)cc1Cl`, the T/C was 118 % of control (dose: 60.0 mg/kg/injection, schedule: Q01DX005 (ip), vehicle: Klucel (hydroxypropylcellulose) (HPC)); 111 % of control (dose: 120.0 mg/kg/injection, schedule: Q01DX005 (ip), vehicle: Klucel (hydroxypropylcellulose) (HPC)); 118 % of control (dose: 240.0 mg/kg/injection, schedule: Q01DX005 (ip), vehicle: Klucel (hydroxypropylcellulose) (HPC)).
